Results as given in patent publication US6921775B2, “Methods for modulating brain damage” (Children's Medical Center Corporation, priority 2001, dated 2005).

Legend:
OL precursor cells = experiment: Kainate-induced excitotoxicity in OL precursor cultures (trypan blue cell viability); format: cell-based, rat; conditions: 300 μM kainate; for concentration giving significant reduction of kainate-induced cell death: cell survival assessed 24 hr later
Method: Primary oligodendrocyte precursor cells were isolated from mixed glial cultures of the forebrains of newborn Sprague-Dawley rats using a selective detachment procedure as described in detail elsewhere (McCarthy and de Vellis, 1980; Back et al., 1998), and further purified by differential adhesion (Back et al., 1998). Precursor cells were maintained in a chemically-defined medium (CDM) supplemented with recombinant human platelet derived growth factor-AA (PDGF, 10 ng/ml) and basic fibroblast growth factor (bFGF, 10 ng/ml). The CDM was Dulbecco Modified Eagle's Medium (DMEM) containing D-glucose (25 mM), L-glutamine (4 mM), sodium pyruvate (1 mM), human apo-transferrin (50 μg/ml), bovine pancreatic insulin (5 μg/ml), sodium selenium (30 nM), hydrocortisone (10 nM), D-biotin (10 nM), and bovine serum albumin (BSA, 1 mg/ml). All chemicals were from Sigma. Precursor cells were maintained in the presence of growth factors (PDGF+bFGF) by refeeding with fresh medium every 48 hr for 7 days, to promote cell proliferation and prevent differentiation (Bogler et al., 1990). Experiments were performed with cultures maintained in CDM without the supplemental growth factors. These cultures were routinely characterized by immunochemical detection of cell-specific markers as described before (Back et al., 1998). Cultures at the beginning of experiments usually consisted of approximately 90% A2B5^+ oligodendrocyte precursors and less than 5% glial fibrillary acidic protein (GFAP)-positive astrocytes. Cells were plated on poly-DL-ornithine-coated 24-well plates for cell viability assays and on coated glass coverslips for immunocytochemistry, proliferation studies, and lineage analysis. Kainic acid (Sigma-RBI) were first dissolved in 0.1N HCl, and cyclothiazide (Sigma) in 0.1N NaOH, then added to culture medium to the desired final concentration. The pH of the culture media was maintained at 7.4. Topiramate (RWJ Pharmaceutical Research Institute) and NBQX (Sigma-RBI) were directly dissolved in culture medium and applied 10 min prior to exposure of the cells to kainate or oxygen-glucose deprivation (OGD). Following exposure to kainate or OGD for 24 hr, cell death was quantitatively assessed using the trypan blue exclusion method (Perry et al., 1997). Cells in 5-7 adjacent fields (×200) per well were counted to determine cell survival. At least 1000 cells per condition were counted in control cultures. The mean±SEM values for each experimental group were obtained from at least three separate experiments, and each was performed in triplicate. […] OGD has been previously shown to cause non-NMDA receptor-mediated ischemic cell death in a similar culture model (Fern and Moller, 2000). […] Cell survival was assessed 24 hr later.

[1] = test system: calcium permeable AMPA/kainate receptors; experiment: AMPA induced cobalt uptake in coronal brain slices; format: cell-based; conditions: P7 rat slices, 100 μM AMPA, 100 μM MK-801, 20 minute
Excerpt: P6/7 Long Evans rat pups were sacrificed by decapitation and the brains were removed quickly and placed in ice cold rat ACSF. 300 μm coronal slices were cut on a live-slice dedicated vibratome while continually maintained in oxygen bubbled, cold ACSF. Slices were transferred to an oxygen chamber, where they were maintained at room temperature.
300 μm thick vibratome cut coronal slices were collected from the anterior commissure to the anterior aspect of the thalamus and placed in oxygen-rich ice cold rat ACSF. Stabilized slices were transferred to a room temperature oxygen chamber and maintained in ACSF. Stable slices were transferred to modified ACSF containing low calcium and 5 mM CoCL2 and stimulated with 100 μM AMPA in the presence of 100 μM MK-801 and with or without topiramate in varying concentrations. Slices were incubated at room temperature for 20 minutes then rinsed in ACSF, followed by 3 rinses in ASCF containing 2 mM EDTA to chelate and remove any unbound cobalt. Cobalt was then precipitated with ammonium […]. Sections were fixed in 4% paraformaldehyde for 10 minutes, rinsed and stored in PBS. Silver enhancement of precipitate was carried out for improved visualization. Slices were transferred to enhancement solution (10% sucrose, 15.5 mM hydroquinone, 42 mM citric acid) and warmed to 50° C. Slices were moved to similar solution containing 0.1% silver nitrate, then incubated at 50° C. for 45 minutes, with solution changes every 15 minutes. Sections were rinsed in PBS then cryoprotected in 30% sucrose solution and 40 μm sections, cut using a freezing microtome, were mounted on slides and analyzed.
Cortical slices were assessed for the presence of AMPA induced cobalt uptake in coronal slices from P7 rats. […] Immature OLs in pericallosal white matter at P7 show consistent cobalt uptake following 20 minute incubation with 100 μM AMPA, 100 μM MK-801 in low Ca^2+, cobalt containing rat ACSF (FIG. 6B). Cobalt-containing white matter cells were identified as OL precursors by immunolabeling with O4 surface antigen (FIG. 6C and FIG. 6D). […]

[2] = 100 μM NBQX or 50 μM topiramate

SMILES | concentration giving significant reduction of kainate-induced cell death (OL precursor cells) | cell survival (OL precursor cells; topiramate 50-100 μM, 24 hr) | cobalt uptake in immature OLs of pericallosal white matter ([1]; 10 μM topiramate) | cobalt uptake in immature OLs of pericallosal white matter [1, 2] | protection against kainate-induced cell death at 50 μM (OL precursor cells; 50 μM NBQX, 24 hr)
CC1(C)O[C@@H]2[C@@H](CO[C@@]3(COS(N)(=O)=O)OC(C)(C)O[C@@H]23)O1 [topiramate] | ≥ 30 µM | approximately 70% | partial effect | effectively blocked | 
NS(=O)(=O)c1cccc2c1c([N+](=O)[O-])cc1nc(O)c(O)nc12 [NBQX, 2,3-Dioxo-6-nitro-1,2,3,4-tetrahydrobenzo[f]quinoxaline-7-sulphonamide] | ≥ 10 µM |  |  | effectively blocked | fully protective
